Test results: US11453642B2, “Oxygenated amino- or ammonium-containing sulfonic acid, phosphonic acid and carboxylic acid derivatives and their medical use” (GRI BIO, INC., priority 2011, dated 2022)
Values joined by “and” are separate entries in the source; they are usually repeats but may differ in a detail not shown here. Identical values can stand only once. Marks after values point to notes of the source that are not given here.

System: allergic contact dermatitis response in mice
Assay: Allergic contact dermatitis (TDI) model in mice, mouse ear swelling test
Format: in vivo
Protocol: The anti-inflammatory and anti-allergic effects of compounds 1a and 1c were assessed in a mouse model of allergic contact dermatitis, a response driven primarily by T helper type 2 (Th2) cells. […] In this model, an allergic dermatitis response is obtained by sensitizing mice to TDI and subsequently challenging them with antigen by topical administration onto the ears. A quantitative assessment of anti-inflammatory and anti-allergic effects of topically or orally administered test compounds is possible by measuring the resulting ear swelling. The advantages of the allergic contact dermatitis model (Zöllner et al., Bioessays 26:693-6 (2004)) are reproducibility and reliability (>90% of BALB/c mice respond to sensitization), a short induction protocol, quantitative assessment by measuring ear thickness, atopic dermatitis-like skin lesions can be induced, and clinically relevant pharmaceuticals, such as corticosteroids, calcineurin-inhibitors and PDE4-inhibitors, are effective in this model.
Female BALB/c-mice were obtained from Charles River (Sulzfeld, Germany) at age 8 weeks. All animals were housed in groups of eight per cage at 22° C. with a 12 h light/dark-cycle, Water and a standard diet (Altromin, Lage/Lippe, Germany) were available ad libitum. All animals were acclimatized for one week before experimental procedures were commenced.
Experimental procedures for BALB/c mice housing, TDI sensitization and challenge, and measurement of ear thickness were performed as previously described (Baumer et al., J Pharm Pharmacol, 55:1107-1114 (2003)) with the following modifications. For active sensitization, 100 μL of 5% (w/v) TDI was administered to the shaved and stripped abdominal epidermis on day one, and for the next three consecutive days, 50 μL of 5% (My) TDI was applied. The allergic reaction was boosted 21 days later by application of 50 μL of 0.5% (w/v) TDI. For the examination of test compound effects, the left ears were used for the TDI challenge (20 μL of 0.5% in acetone) and ear thickness measured 3 h before and 24 h after challenge.
Group size was n=7 mice unless otherwise stated. Test compounds were freshly prepared before administration.
Administration time: to determine optimal time for administration treatment groups were treated orally by gavage with 100 mg/kg of compound 1a or 1c (suspended in 0.5% tylose, 10 mL/kg) 1, 4 or 16 h before topical TDI challenge. One group was treated with 100 mg/kg miltefosine orally, 16 h before challenge (based on available data for optimal administration time for miltefosine) and vehicle treated mice received tylose (10 mL/kg) orally, 4 h before challenge.
Dose-response: two groups of mice were treated orally with compound 1a at 25 mg/kg or 100 mg/kg suspended in 0.5% tylose, 4 h before topical TDI challenge. Vehicle treated mice received 0.5% tylose orally 4 h before challenge. As a positive control, dexamethasone was administered in saline solution at 1 mg/kg or 3 mg/kg, 2 h and 30 min before challenge and 1 h after challenge. The dose and dosing scheme for dexamethasone was based on previous experience showing a maximal effect in this model.
Compound 1a was administered to two groups of mice topically in 20 μl of a 2% or 6% solution in propyleneglycol. The suspension was heated to 60° C. and mixed using a thermomixer (Eppendorf) until it became clear. The solution was applied, 2 h before topical TDI challenge by administration of 10 μl onto each of the inner and outer surfaces of the left ears. A vehicle group (17=5) was treated with propyleneglycol. As a positive control, diflorasone, diacetate was administered at 0.01% (low dose) and 0.05% (high dose) in 20 μl acetone, 2 h before challenge. A basal control group was left untreated.
Mean and standard error of the mean (SEM) were calculated from individual ear edema values. […]

[1] = administration time study, 100 mg/kg oral, 1 h before TDI challenge
[2] = administration time study, 100 mg/kg oral, 4 h before TDI challenge
[3] = administration time study, 100 mg/kg oral, 16 h before TDI challenge

Row | SMILES | Inhibition of mouse ear swelling [1] | Inhibition of mouse ear swelling [2] | Inhibition of mouse ear swelling [3] | inhibition relative to the highest dose of dexamethasone (dose-response study, oral, versus dexamethasone 3 mg/kg) [%] | Inhibition of mouse ear swelling (dose-response study, 25 mg/kg oral, 4 h before TDI challenge) | Inhibition of mouse ear swelling (dose-response study, 100 mg/kg oral, 4 h before TDI challenge) | toxicity at the doses used (oral 25 or 100 mg/kg) | reduction of ear swelling compared to vehicle control (topical solution at 2% or 6%) | Inhibition of mouse ear swelling (topical, 20 μl of 2% solution in propyleneglycol, 2 h before TDI challenge) | Inhibition of mouse ear swelling (topical, 20 μl of 6% solution in propyleneglycol, 2 h before TDI challenge)
1 | CCCCCCCCCCCCCCCCN(C)CC(O)CS(=O)(=O)O (stereo not shown) [Compound 1a, 2-hydroxy-3-(N-methylhexadecylammonio)propane-sulfonate] | 72.6*** % | 73.4*** % | 29.0% | 52 | 45% and 44.9*** % | 45% and 44.4*** % | no toxicity | up to 68% | 67.9** % | 63.1** %
2 | CCCCCCCCCCCCN(C)CC(O)CS(=O)(=O)O (stereo not shown) [Compound 1c, 2-hydroxy-3-(N-methyldodecylammonio)propanesulfonate] | 58.1** % | 68.5*** % | 42.7^§ % | – | – | – | – | – | – | –
